The values below are quoted from earlier work in patent publication US20190091218A1 (priority 2016, published 2019).

The conditions of data set [1]: standard 10 mg oral dose.
In data set [2] the test system is human rhinovirus (HRV).
The subject of data set [3] is histamine induced wheal and flare.
Assay in data set [4]: not given
This is another data set of the same source.

For data set [5], the target named is H1 receptor (Homo sapiens, UniProt P35367). To be noted: acidic pH.

Each structure is given as a SMILES string. Where two headings read alike, the source gives them in different places.

H1 receptor, sequence (P35367 whole entry): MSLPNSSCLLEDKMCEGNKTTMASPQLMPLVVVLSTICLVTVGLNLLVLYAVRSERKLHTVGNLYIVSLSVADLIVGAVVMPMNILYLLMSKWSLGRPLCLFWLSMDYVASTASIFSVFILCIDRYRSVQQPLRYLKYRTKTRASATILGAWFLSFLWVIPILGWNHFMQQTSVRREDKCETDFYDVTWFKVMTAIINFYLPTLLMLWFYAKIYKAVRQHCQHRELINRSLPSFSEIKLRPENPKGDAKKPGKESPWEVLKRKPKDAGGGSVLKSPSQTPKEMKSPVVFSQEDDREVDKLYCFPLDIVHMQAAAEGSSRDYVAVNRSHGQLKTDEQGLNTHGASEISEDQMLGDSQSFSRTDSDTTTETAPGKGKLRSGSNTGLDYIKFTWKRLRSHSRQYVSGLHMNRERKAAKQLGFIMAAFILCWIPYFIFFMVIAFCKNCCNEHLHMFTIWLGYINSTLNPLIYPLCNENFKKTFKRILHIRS

Consider `CC(C)(O)c1ccccc1CC[C@@H](SCC1(CC(=O)O)CC1)c1cccc(/C=C/c2ccc3ccc(Cl)cc3n2)c1` [montelukast], for which the “mean AUC” value in data set [1] is 2689 ng/h/mL. In addition, the “dose administered without clinically relevant side effects” value by setting is: (adult patients, 22 weeks) “up to 200 mg/day”; (short-term studies, approximately one week) “up to 900 mg/day”.
`O=C(O)COCCN1CCN([C@H](c2ccccc2)c2ccc(Cl)cc2)CC1` [levocetirizine]: the “dose that can be safely administered” value (studies in humans) is reported as “up to 30 mg/day”. In addition, the “levels of HRV-induced increases in ICAM-1” value in data set [2] (added before, after, or at the time of the HRV infection) is listed as “reduced”. Moreover, the “HRV-induced ICAM-1, cytokine expression, and viral replication” value in data set [2] (airway epithelial cells from nose and lung) is given as “inhibit”. Further, the “potency among modern generation antihistamines” value in data set [3] (histamine induced wheal and flare data) is “most potent of the five modern generation antihistamines”. Further, in data set [3] (levocetirizine 5 mg per day vs fexofenadine 180 mg per day), the effectiveness versus fexofenadine result is reported as “more effective than fexofenadine”. For the same molecule, the “time to steady state level” value in data set [4] (in vivo) was 40 h. Besides, the results for the peak concentration in data set [4] (repeated 5 mg once daily oral dose) and in data set [4] (single 5 mg oral dose) were 308 ng/mL and 270 ng/mL, respectively. In data set [5], the “receptor affinity over first generation mepyramine” value was 5 ×.
